Like-named read-outs stand apart in the source and are kept apart here.
Columns and labels:
[1] = target: T1, α-amylase from porcine pancreas (Sus scrofa, UniProt P00690); assay: α-amylase inhibitory activity (starch-iodine method); assay type: biochemical
T1 sequence (P00690 16-511): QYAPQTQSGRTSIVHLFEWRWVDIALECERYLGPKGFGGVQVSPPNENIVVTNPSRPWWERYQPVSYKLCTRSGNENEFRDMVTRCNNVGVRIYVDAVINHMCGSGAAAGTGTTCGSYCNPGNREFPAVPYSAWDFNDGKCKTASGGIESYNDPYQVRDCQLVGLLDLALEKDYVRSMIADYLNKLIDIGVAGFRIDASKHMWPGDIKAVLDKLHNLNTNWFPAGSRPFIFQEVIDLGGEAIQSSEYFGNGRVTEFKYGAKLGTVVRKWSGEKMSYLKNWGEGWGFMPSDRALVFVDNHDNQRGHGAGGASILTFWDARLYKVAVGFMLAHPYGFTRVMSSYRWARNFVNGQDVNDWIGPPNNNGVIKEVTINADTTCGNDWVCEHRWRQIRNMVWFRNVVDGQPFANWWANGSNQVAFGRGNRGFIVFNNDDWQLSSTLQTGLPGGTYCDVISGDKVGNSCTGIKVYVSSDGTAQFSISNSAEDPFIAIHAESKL
Method: (§1) The α-amylase and α-glucosidase assays were evaluated using α-amylase from porcine pancreas (Type IV-B, Sigma A3176, St. Louis, MO, USA) and α-glucosidase from Saccharomyces cerevisiae (Tipe I, Sigma G5003, St. Louis, MO, USA). Starch was used as substrate for α-amylase and p-Nitrophenyl-α-D-glucopiranoside (p-NPG-Sigma, N1377) was used as substrate for α-glucosidase. For both enzymatic tests, a microplate reader (EPOCH 2, Biotek Instruments Inc. Winoosky, VT, USA) was used.
The inhibitory activity is measured according to the method reported by Xiao et al. [30] with slight modifications. […] Starch solution was prepared by dissolving 1 g in 50 mL of 0.4 M NaOH and heated for 5 min at 100 °C. After cooling in iced water, the solution pH was adjusted to 7 with 2 M HCl and H2O was added to complete 100 mL. Sample solutions were prepared by dissolving 10 mg in 1 mL MeOH:H2O (50:50). Several dilutions in PBS (SIGMA-P4417) were made in case of getting complete enzyme inhibition. PBS solution (35 μL), substrate (35 μL) and sample (5 μL) solutions were mixed in a 96-well microtiter plate, and the mixture was pre-incubated at 37 °C for 1 min. Then, 20 μL of a 50 μg/mL α-amylase solution was added to each well. The plate was incubated for 15 min. […] The absorbance was measured in a microplate reader (EPOCH 2, Biotek Instruments Inc. Winoosky, VT, USA) at 580 nm. Inhibitory activity (%) was calculated according to the formula described by Kusano et al. [31] as follows: (1) Inhibition (%)=[1−(ABS2−ABS1)/(ABS4−ABS3)×100] where ABS1 is the absorbance of the incubated solution containing sample, starch and amylase, ABS2 is the absorbance of incubated solution containing sample and starch, ABS3 is the absorbance of incubated solution containing starch and amylase, and ABS4 is the absorbance of incubated solution containing starch. IC50 value was calculated by curve fitting of data (GraphPad Prism 5.0, GraphPad Software, Inc., La Jolla, CA, USA).

[2] = target: α-glucosidase from Saccharomyces cerevisiae; assay: α-glucosidase inhibition assay (p-NPG substrate, pNP release over 60 min); assay type: biochemical; conditions: for IC50: compounds and acarbose, max concentration tested 1 mM, '-' = no inhibitory activity at maximum dose tested
Method: as §1
α-Glucosidase inhibitory activity was determined using a 96-well microtiter plate with p-nitrophenyl-α-D-glucopyranoside as the substrate, according to the method describe by Tao et al. [32], with slight modifications. Sample solutions were prepared by dissolving 10 mg in 1 mL MeOH:H2O (50:50). Several dilutions in PBS were made in case of getting complete enzyme inhibition. First, 75 μL of PBS (SIGMA-P4417) was mixed with 5 μL of the sample and 20 μL of the enzyme solution (0.15 U/mL in PBS pH 7.4), then it was pre-incubated at 37 °C for 5 min prior to the initiation of the reaction by adding the substrate. After pre-incubation, 20 μL of PNPG (5 mM in phosphate buffer, pH 7.4) was added and then incubated at 37 °C. […] The results were expressed as inhibition percentage by means of the formula described by Choi et al. [33] as follows: (2) Inhibition (%)=[(Ao−As)/Ao]×100 where A0 is the absorbance recorded for the enzymatic activity without inhibitor (control), and As is the absorbance recorded for the enzymatic activity in presence of the inhibitor (sample). IC50 value was calculated by curve fitting of data (GraphPad Prism 5.0).

[3] = compounds and acarbose; max concentration tested 1 mM; '-' = inactive at maximum dose tested (<35% inhibition); read-out: IC50 α-amylase
[4] = read-out: IC50 α-amylase; compounds and acarbose; max concentration tested 1 mM; '-' = inactive at maximum dose tested (<35% inhibition)

C=C(C)[C@@H]1CC[C@]2(C)CC[C@]3(C)[C@H](CC[C@@H]4[C@@]5(C)CC[C@H](OC(C)=O)C(C)(C)[C@@H]5CC[C@]43C)[C@@H]12 [Compound 1, Lupeol acetate]
IC50 [1, 3]: > 62.5 µM | IC50 [2]: > 41.7 µM

O=C(O)/C=C\c1ccc(O)cc1 [Compound 2, Cis-p-coumaric acid]
IC50 [1, 4]: > 62.5 µM | IC50 [2]: > 41.7 µM

C=C(C)[C@@H]1CC[C@]2(C)CC[C@]3(C)[C@H](CC[C@@H]4[C@@]5(C)CC[C@H](O)C(C)(C)[C@@H]5CC[C@]43C)[C@@H]12 [Compound 3, Lupeol]
IC50 [1, 3]: > 62.5 µM | IC50 [2]: > 41.7 µM

CC[C@H](CC[C@@H](C)[C@H]1CC[C@H]2[C@@H]3CC=C4C[C@@H](O)CC[C@]4(C)[C@H]3CC[C@]12C)C(C)C [Compound 4, β-Sitosterol]
IC50 [1, 3]: > 62.5 µM | IC50 [2]: > 41.7 µM

O=C(O)/C=C/c1ccc(O)cc1 [Compound 5, Trans-p-coumaric acid]
IC50 [1, 4]: > 62.5 µM | enzyme inhibition (α-glucosidase) ([2]; at the maximum dose tested (1 mM for compounds)): 27% | IC50 [2]: > 41.7 µM

CCCCC/C=C\C/C=C\CCCCCCCC(=O)O [Compound 6, Linoleic acid]
IC50 [1, 3]: > 62.5 µM | IC50 [2]: 0.42 µM

Oc1cc(O)c2c(c1)O[C@H](c1ccc(O)c(O)c1)[C@@H](O)C2 [Compound 7, (+)-Catechin]
IC50 [1, 3]: > 62.5 µM | IC50 [2]: 5.5 µM

C[C@@H]1O[C@@H](Oc2c(-c3ccc(O)c(O)c3)oc3cc(O)cc(O)c3c2=O)[C@H](O)[C@H](O)[C@H]1O [Compound 9, Quercitrin]
IC50 [1, 4]: > 62.5 µM | IC50 [2]: 7.77 µM

Reference: article PMC6274503, “Chemical Constituents of Muehlenbeckia tamnifolia (Kunth) Meisn (Polygonaceae) and Its In Vitro α-Amilase and α-Glucosidase Inhibitory Activities” (Molecules, 2016)
